US11596639B2, “Substituted indole Mcl-1 inhibitors” (Vanderbilt University, priority 2016, dated 2023)
Read-outs that look alike come from different tables or passages of the source.

Experiments:
[1] = molecular target: Mcl-1 (Homo sapiens (Human), UniProt Q07820); experiment: Fluorescence polarization anisotropy (FPA) competition assay, FITC-Bak or FITC-Bim BH3 peptide; assay type: binding; conditions: read-out: Ki for Inhibition of Mcl-1 by FPA assay
[2] = tested on: H929 human cancer cell lines; experiment: Cellular viability / proliferation (Cell TiterGlo, 72 h); assay type: cell-based
Method in brief: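 Cells were seeded at 1,000 cells/well in medium with 10% FBS and dosed 24 h later with a 2-fold serial dilution of compound (top concentration 50 μM, final DMSO <1%).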

[3] = Homo sapiens, NCI-H929, 72 h, read-out: GI50 on cellular proliferation of H929 human cancer cell lines, H929 cells, 72 h, Cell TiterGlo, 10% FBS

Sequence of Mcl-1 (Q07820 172-327): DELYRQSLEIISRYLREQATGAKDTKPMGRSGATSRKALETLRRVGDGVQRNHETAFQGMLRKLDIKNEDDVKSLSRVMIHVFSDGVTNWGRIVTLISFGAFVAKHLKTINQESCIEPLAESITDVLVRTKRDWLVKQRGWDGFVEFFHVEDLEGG

Row | SMILES | Ki [1] | GI50 ([2]; read-out: GI50 on cellular proliferation of H929 human cancer cell lines, H929 cells, 72 h, Cell TiterGlo, 10% FBS) | GI50 [2, 3] | GI50 ([2]; H929 cells, 72 h, Cell TiterGlo, 10% FBS, read-out: GI50 on cellular proliferation of H929 human cancer cell lines)
1 | Cc1cc(OCCCc2c3n(c4c(-c5c(C)nn(C)c5C)c(Cl)ccc24)[C@H](C)CN(c2cn(CCN4CCOCC4)c4cc(C(=O)O)ccc24)C3=O)cc(C)c1Cl [Example 293, (R)-3-(7-chloro-10-(3-(4-chloro-3,5-dimethylphenoxy)propyl)-4-methyl-1-oxo-6-(1,3,5-trimethyl-1H-pyrazol-4-yl)-3,4-dihydropyrazino[1,2-a]indol-2(1H)-yl)-1-(2-morpholinoethyl)-1H-indole-6-carboxylic acid] | < 1 nM | 810 nM |  | 
2 | Cc1cc(OCCCc2c3n(c4c(-c5c(C)nn(C)c5C)c(Cl)ccc24)[C@H](C)CN(c2cccc4c2C(=O)CC4)C3=O)cc(C)c1Cl [Example 195, (R)-7-Chloro-10-(3-(4-chloro-3,5-dimethylphenoxy)propyl)-4-methyl-2-(3-oxo-2,3-dihydro-1H-inden-4-yl)-6-(1,3,5-trimethyl-1H-pyrazol-4-yl)-3,4-dihydropyrazino[1,2-a]indol-1(2H)-one] | 3.6 nM |  | 1800 nM | 
3 | Cc1cc(OCCCc2c3n(c4c(-c5c(C)nn(C)c5C)c(Cl)ccc24)[C@H](C)CN(c2ccc(Cl)c4c(C(=O)O)cn(C)c24)C3=O)cc(C)c1Cl [Example 435, (R)-4-Chloro-7-(7-chloro-10-(3-(4-chloro-3,5-dimethylphenoxy)propyl)-4-methyl-1-oxo-6-(1,3,5-trimethyl-1H-pyrazol-4-yl)-3,4-dihydropyrazino[1,2-a]indol-2(1H)-yl)-1-methyl-1H-indole-3-carboxylic acid] | < 1 nM |  | 570 nM | 
4 | Cc1cc(OCCCc2c3n(c4c(-c5c(C)nn(C)c5C)c(Cl)ccc24)[C@H](C)CN(c2nn(C)c4ccc(C(=O)O)cc24)C3=O)cc(C)c1Cl [Example 163, (R)-3-(7-Chloro-10-(3-(4-chloro-3,5-dimethylphenoxy)propyl)-4-methyl-1-oxo-6-(1,3,5-trimethyl-1H-pyrazol-4-yl)-3,4-dihydropyrazino[1,2-a]indol-2(1H)-yl)-1-methyl-1H-indazole-5-carboxylic acid] | < 1 nM |  | 260 nM | 
5 | CCn1ccc2c(C(=O)O)cc(N3C[C@@H](C)n4c(c(CCCOc5cc(C)c(Cl)c(C)c5)c5ccc(Cl)c(-c6c(C)nn(C)c6C)c54)C3=O)cc21 [Example 99, (R)-6-(7-chloro-10-(3-(4-chloro-3,5-dimethylphenoxy)propyl)-4-methyl-1-oxo-6-(1,3,5-trimethyl-1H-pyrazol-4-yl)-3,4-dihydropyrazino[1,2-a]indol-2(1H)-yl)-1-ethyl-1H-indole-4-carboxylic acid] | < 1 nM |  |  | 2100 nM
6 | Cc1ccnc(-c2ccc3c(c2)c(N2C[C@@H](C)n4c(c(CCCOc5cc(C)c(Cl)c(C)c5)c5ccc(Cl)c(-c6c(C)nn(C)c6C)c54)C2=O)cn3C)n1 [Example 418, (R)-7-Chloro-10-(3-(4-chloro-3,5-dimethylphenoxy)propyl)-4-methyl-2-(1-methyl-5-(4-methylpyrimidin-2-yl)-1H-indol-3-yl)-6-(1,3,5-trimethyl-1H-pyrazol-4-yl)-3,4-dihydropyrazino[1,2-a]indol-1(2H)-one] | 1.4 nM |  | 900 nM | 
7 | Cc1cc(OCCCc2c3n(c4c(-c5c(C)ncnc5C)c(Cl)ccc24)[C@H](C)CN(c2cccc4c(C(=O)O)ccnc24)C3=O)cc(C)c1Cl [Example 225, 8-[(4R)-7-chloro-10-[3-(4-chloro-3,5-dimethyl-phenoxy)propyl]-6-(4,6-dimethylpyrimidin-5-yl)-4-methyl-1-oxo-3,4-dihydropyrazino[1,2-a]indol-2-yl]quinoline-4-carboxylic acid] | < 1 nM |  | 3300 nM | 
8 | Cc1cc(OCCCc2c3n(c4c(-c5c(C)nn(C)c5C)c(Cl)ccc24)[C@H](C)CN(c2cccc4cc(C#N)n(C)c24)C3=O)cc(C)c1Cl [Example 300, 7-[(4R)-7-chloro-10-[3-(4-chloro-3,5-dimethyl-phenoxy)propyl]-4-methyl-1-oxo-6-(1,3,5-trimethylpyrazol-4-yl)-3,4-dihydropyrazino[1,2-a]indol-2-yl]-1-methyl-indole-2-carbonitrile] | 2 nM |  | 5900 nM | 
9 | Cc1cc(OCCCc2c3n(c4c(-c5c(C)nn(C)c5C)c(Cl)ccc24)[C@H](C)CN(c2cn(C)c4cc(C#N)ccc24)C3=O)cc(C)c1Cl [Example 206, (R)-3-(7-Chloro-10-(3-(4-chloro-3,5-dimethylphenoxy)propyl)-4-methyl-1-oxo-6-(1,3,5-trimethyl-1H-pyrazol-4-yl)-3,4-dihydropyrazino[1,2-a]indol-2(1H)-yl)-1-methyl-1H-indole-6-carbonitrile] | < 1 nM |  | 3200 nM | 
10 | Cc1cc(OCCCc2c3n(c4c(-c5c(C)nn(C)c5C)c(Cl)ccc24)[C@H](C)CN(c2ccnc4c2cc(C(=O)O)n4C)C3=O)cc(C)c1Cl [Example 169, (R)-4-(7-chloro-10-(3-(4-chloro-3,5-dimethylphenoxy)propyl)-4-methyl-1-oxo-6-(1,3,5-trimethyl-1H-pyrazol-4-yl)-3,4-dihydropyrazino[1,2-a]indol-2(1H)-yl)-1-methyl-1H-pyrrolo[2,3-b]pyridine-2-carboxylic acid] | < 1 nM |  | 2600 nM | 
11 | COc1cc(C(=O)O)cc(N2CCCn3c(c(CCCOc4cc(C)c(Cl)c(C)c4)c4ccc(Cl)c(-c5c(C)nn(C)c5C)c43)C2=O)c1OCCc1ccccc1 [Example 66, 3-[8-Chloro-11-[3-(4-chloro-3,5-dimethyl-phenoxy)propyl]-1-oxo-7-(1,3,5-trimethylpyrazol-4-yl)-4,5-dihydro-3H-[1,4]diazepino[1,2-a]indol-2-yl]-5-methoxy-4-(2-phenylethoxy)benzoic acid] | 4.3 nM |  | 6400 nM | 
12 | Cc1cc(OCCCc2c3n(c4c(-c5c(C)nn(C)c5C)c(Cl)ccc24)[C@H](C)CN(c2cn(C)c4ccc([N+](=O)[O-])cc24)C3=O)cc(C)c1Cl [Example 223, (4R)-7-chloro-10-[3-(4-chloro-3,5-dimethyl-phenoxy)propyl]-4-methyl-2-(1-methyl-5-nitro-indol-3-yl)-6-(1,3,5-trimethylpyrazol-4-yl)-3,4-dihydropyrazino[1,2-a]indol-1-one] | 1.1 nM |  | 5000 nM | 
13 | Cc1cc(OCCCc2c3n(c4c(-c5c(C)nc(CNC6CCN(C)CC6)nc5C)c(Cl)ccc24)[C@H](C)CN(c2cn(C)c4ccc(C(=O)O)cc24)C3=O)cc(C)c1Cl [Example 437, (R)-3-(7-Chloro-10-(3-(4-chloro-3,5-dimethylphenoxy)propyl)-6-(4,6-dimethyl-2-(((1-methylpiperidin-4-yl)amino)methyl)pyrimidin-5-yl)-4-methyl-1-oxo-3,4-dihydropyrazino[1,2-a]indol-2(1H)-yl)-1-methyl-1H-indole-5-carboxylic acid] | 4.7 nM |  | 1200 nM | 
14 | Cc1cc(OCCCc2c3n(c4c(-c5c(C)nn(CC6CCOCC6)c5C)c(Cl)ccc24)[C@H](C)CN(c2cn(C)c4cc(C(=O)O)ccc24)C3=O)cc(C)c1Cl [Example 308, (R)-3-(7-chloro-10-(3-(4-chloro-3,5-dimethylphenoxy)propyl)-6-(3,5-dimethyl-1-((tetrahydro-2H-pyran-4-yl)methyl)-1H-pyrazol-4-yl)-4-methyl-1-oxo-3,4-dihydropyrazino[1,2-a]indol-2(1H)-yl)-1-methyl-1H-indole-6-carboxylic acid] | < 1 nM |  | 410 nM | 
15 | Cc1cc(OCCCc2c3n(c4c(-c5c(C)nn(C)c5C)c(Cl)ccc24)[C@H](C)CN(c2cn(C)c4cc(-c5nnco5)ccc24)C3=O)cc(C)c1Cl [Example 343, (R)-7-Chloro-10-(3-(4-chloro-3,5-dimethylphenoxy)propyl)-4-methyl-2-(1-methyl-6-(1,3,4-oxadiazol-2-yl)-1H-indol-3-yl)-6-(1,3,5-trimethyl-1H-pyrazol-4-yl)-3,4-dihydropyrazino[1,2-a]indol-1(2H)-one] | 3.7 nM |  | 3600 nM | 
16 | Cc1cc(OCCCc2c3n(c4c(-c5c(C)nn(C)c5C)c(Cl)ccc24)[C@H](C)CN(c2cccc4c2CCC4=O)C3=O)cc(C)c1Cl [Example 203, (R)-7-Chloro-10-(3-(4-chloro-3,5-dimethylphenoxy)propyl)-4-methyl-2-(1-oxo-2,3-dihydro-1H-inden-4-yl)-6-(1,3,5-trimethyl-1H-pyrazol-4-yl)-3,4-dihydropyrazino[1,2-a]indol-1(2H)-one] | 6 nM |  | 3900 nM | 
17 | Cc1cnc(-c2ccc3c(c2)c(N2C[C@@H](C)n4c(c(CCCOc5cc(C)c(Cl)c(C)c5)c5ccc(Cl)c(-c6c(C)nn(C)c6C)c54)C2=O)cn3C)nc1 [Example 450, (R)-7-Chloro-10-(3-(4-chloro-3,5-dimethylphenoxy)propyl)-4-methyl-2-(1-methyl-5-(5-methylpyrimidin-2-yl)-1H-indol-3-yl)-6-(1,3,5-trimethyl-1H-pyrazol-4-yl)-3,4-dihydropyrazino[1,2-a]indol-1(2H)-one] | 2.2 nM |  | 1100 nM | 
18 | COCCn1c(C(=O)O)cc2cc(C(C)C)cc(N3C[C@@H](C)n4c(c(CCCOc5cc(C)c(Cl)c(C)c5)c5ccc(Cl)c(-c6c(C)nn(C)c6C)c54)C3=O)c21 [Example 364, (R)-7-(7-Chloro-10-(3-(4-chloro-3,5-dimethylphenoxy)propyl)-4-methyl-1-oxo-6-(1,3,5-trimethyl-1H-pyrazol-4-yl)-3,4-dihydropyrazino[1,2-a]indol-2(1H)-yl)-5-isopropyl-1-(2-methoxyethyl)-1H-indole-2-carboxylic acid] | 1 nM |  | 540 nM | 
